# Data: patent US4946995A, “Process for the production of thiocarbohydrazide” (Mobay Corporation, priority 1989, dated 1990)
# Like-named read-outs stand apart in the source and are kept apart here.
# Assays:
# [1] = footnote of Table 2, cited from earlier work
# [2] = solubility of HDTC in alcohols; format: physicochemical; conditions: alcohols (methanol, ethanol and isopropanol)
# Procedure: The HDTC may be made by any of the methods known to those in the art. One relatively simple method for producing HDTC in quantitative yields is to react carbon disulfide with hydrazine in a molar ratio of 1:2 in an alcohol at 0°-30° C. Appropriate alcohols include methanol, ethanol and isopropanol. […] If hydrazine hydrate is used to produce the HDTC, the water present in the alcohol upon completion of the reaction may be removed by distillation.
solubility in alcohols [2],Compound,pKb ([1]; pKb),pKb ([1]; second printed pKb)
–,"C1CN2CCN1CC2 [DABCO, diazabicyclooctane]",3.0,8.7
–,"CN(C)c1ccncc1 [DMAP, dimethylaminopyridine]",4.3,–
virtually insoluble,"NNC(=S)S [HDTC, Hydrazinium-dithiocarbazinate]",–,–
–,"CCN(CC)CC [TEA, triethylamine]",3.35,–
